1 compound from patent US6391918B1, “N-sulphonyl and N-sulphinyl phenylglycinamide” (priority 1998, dated 2002) can be followed below.

On to `CCS(=O)(=O)NC(C(=O)NCCc1ccc(OC)c(OC)c1)c1ccc(Cl)cc1` (stereo not shown), for which the melting point (in general, the temperature of the solid-liquid transition) was 136 to 138 °C.
